Results from patent publication US12618062B2, “Display of molecules on silently genetically encoded nanoscale carriers for determining synergistic molecular interactions” (The Governors of the University of Alberta, priority 2017, dated 2026).

Molecular target: T1, Ulex Europaeus Agglutinin (UEA lectin) (Ulex europaeus, UniProt P22972)
T1 sequence (P22972 1-243): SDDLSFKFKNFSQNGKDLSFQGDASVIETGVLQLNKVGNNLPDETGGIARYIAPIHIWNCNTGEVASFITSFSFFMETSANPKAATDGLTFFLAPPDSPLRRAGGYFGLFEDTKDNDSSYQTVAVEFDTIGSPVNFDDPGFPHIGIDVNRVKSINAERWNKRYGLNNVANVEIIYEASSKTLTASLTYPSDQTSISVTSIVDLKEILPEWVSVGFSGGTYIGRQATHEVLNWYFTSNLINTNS
Test: Pull-down of liquid glycan array and deep sequencing
Type: binding
Conditions: array of 74 glycans; FIG. 6H
Text: The washing step was repeated three times.

Substance | Enrichment in pull down by plant lectin UGA
Fucα1-2Galb1-4[Fucα1-3]GlcNAcb-Phage [Te118] | enrichment not detected
GalNAcα1-3 [Fucα1-2]Galβ1-4G1cNAcβ-Phage [Te222] | enrichment not detected
